According to US8629242B2, “Methods of inhibiting calcineurin with ApoE analogs” (Cognosci, Inc., priority 2007, dated 2014):
Where two headings read alike, the source gives them in different places. Each block holds one compound with its values, some of them ahead of it. Where a SMILES comes first, the peptide text is derived from it. [ ]: non-standard residue; d: D form. Arg(NO2) = N=C(NCCC[C@H](N)C(=O)O)N[N+](=O)[O-]; Aib = CC(C)(N)C(=O)O

Assays:
Calcineurin = target: T1, Calcineurin (Homo sapiens, UniProt Q08209); experiment: Cell-free calcineurin phosphatase activity assay (BioMol kit); type: biochemical; settings: various concentrations
T1 construct: purchased BioMol AK-804
Procedure: FIG. 14. ApoE analogs bind directly to calcineurin and inhibit its activity. […] (B) Immunoprecipitation of human brain lysate with a biotin-COG 133 conjugate. Lane 1=markers; lane 2=clear bead; lane 3=biotin-COG 133 bead conjugate; and lane 4=10 μg lysate. (C) Immunoprecipitation of different glial cultures with a biotin-COG 133 conjugate. Lane 1=markers; lane 2=astrocyte; lane 3=microglia; and lane 4=oligodendrocyte precursor cells (OPC). Blots in B and C were probed for calcineurin (PP2B).
Calcineurin activity was measured in a cell-free in vitro assay in the presence of various concentrations of COG 133 (SEQ ID NO: 1), COG 112 (SEQ ID NO: 5), COG 68 (SEQ ID NO: 7), COG 125 (Ac-AS(Aib)LRKL(Aib)KR—COOH; SEQ ID NO: 8), or antennapedia (antp), the prefix peptide for COG 112. […] Using a BioMol Calcineurin Phosphatase Activity Kit (Cat. #AK-804), the assay was conducted according to manufacturer's instructions. […] This inhibition of calcineurin activity by ApoE analogs is mediated by a direct interaction of the ApoE analog with the phosphatase.

[1] = Anti-inflammatory properties in vitro or in vivo (general statement)
Excerpt: The following ApoE analogs, COG 112, COG 1410, COG 241, COG 248, COG 68, and COG 345, have been identified as having improved properties as compared to the ApoE peptide, COG 133.

[2] = tested on: oligodendrocyte precursor cells (OPC)/microglia mixed culture; experiment: LPS-induced OPC cell death in OPC/microglia mixed culture; type: cell-based, rat; settings: 1 μM, LPS 10 ng/ml, 24 hours
Procedure: FIG. 9. COG 112 protects OPCs from LPS-induced cell death in OPC/microglia mixed culture. LPS (final conc. 10 ng/ml) was added to an OPC/microglia mixed culture with or without 1 μM COG 112. The prefix peptide of COG 112, antennapedia, was used as a negative control. Cells were fixed with 4% formaldehyde and stained with the OPC marker, NG2, and counterstained with hoescht. (A) LPS-treated cultures; (B) LPS+antennapedia (Antp)-treated cultures; (C) LPS+COG 112-treated cultures; (D) Bar graph summarizing the number of NG2+ cells per field in each condition. ** p<0.01.
FIG. 19. COG 345 promotes remyelination in lysolecithin-induced demyelination model of cerebellum slices. Significant demyelination was induced by lysolecithin (0.5 mg/ml) in cerebellar slices. COG 112 or COG 345 (1 μM) was added on day 3 when full demyelination was achieved. 4 days later, the slices were fixed and double stained with myelin marker MBP (green) and Purkinje cell marker calbindin (red). (A) Untreated-slices; (B) lysolecithin-treated slices; (C) COG 112-treated slices after lysolecithin exposure; (D) COG 345-treated slices after lysolecithin exposure. E-F. ApoE analogs protect OPCs from LPS-induced cell death in OPC/microglia mixed culture. OPCs and microglia derived from brain culture of P2 rat pups were plated in 96-well plates in 1:1 ratio. LPS (10 ng/ml) together with 1 μM of the indicated ApoE analogs was added to the cultures. After 24 hours, OPC cell death was quantified by LDH assay (E) and MTT assay (F). Statistical analysis was conducted by one-way ANOVA followed by Dunnett comparison vs. LPS group. * P<0.01, ** P<0.001, n=3.
A primary culture prepared from the brains of P2 Sprague-Dawley rat pups was grown for seven days. Microglia and OPCs were shaken off from the primary culture with an orbital shaker at 150˜200 rpm. The OPCs and microglia were plated in 24-well plates at a 1:1 ratio with 5×10^4 cells per well of each cell type. After 24 hours, LPS (final conc. 10 ng/ml) was added with or without 1 μM COG 112. The prefix peptide of COG 112, antennapedia, was used as a negative control. After incubation for 72 hours, the medium was removed and cells were fixed with 4% formaldehyde and stained with the OPC marker, NG2, and counterstained with hoescht. Five fields from each of the wells were randomly chosen to count the number of NG2-positive cells.
To further assess the ability of the novel ApoE analogs to promote remyelination, the effect of the analogs on OPC survival was assessed in an OPC/microglia mixed culture. OPC and microglia derived from primary culture of P2 rat pup brain were plated on 96-well plates in 1:1 ratio. […] After 24 hours, cell death of OPC was quantified by both LDH and MTT assays.

Maximum tolerated dose = type: in vivo; settings: in vivo
Excerpt: To fully evaluate the use of ApoE analogs as therapeutic compounds, the margin of safety should also be determined. Towards that end, we determined the maximum tolerated dose of COG 112, COG 248, and COG 345 when administered by intravenous and subcutaneous injection.

[3] = tested on: PLP-induced relapsing-remitting experimental autoimmune encephalomyelitis (EAE) model; experiment: PLP-induced relapsing-remitting EAE model; type: in vivo; design: CSmax during relapse (mean ± SEM) / Area under curve (mean ± SEM): scale not given here; settings: 4 mg/kg s.c.
Procedure: To further compare the activity of the various ApoE analogs, the efficacy of the analogs was assessed in a PLP-induced relapsing-remitting experimental autoimmune encephalomyelitis (EAE) model. […] The second dose was administered the next day followed by three times a week (M, W, F). Relapse rate represents the number of animals experiencing a relapse, while the CSmax indicates the maximal clinical score during relapse. Area under curve represents the area under the curve in a plot of clinical score vs. days post-inoculation (out to 60 days). […] The improvement in relapse rate and clinical score in the EAE model by ApoE analog treatment may be due, in part, to the remyelination-promoting effect of the ApoE analogs.

enriched OPC cultures = experiment: Number of mature oligodendrocytes after differentiation of enriched OPC culture; type: cell-based, rat; settings: 2 μM COG 133, 1 μM COG 112 or 1 μM COG 68 for four days, then six days differentiation without analog
Procedure: FIG. 11. ApoE analogs increase the number of mature oligodendrocytes in culture. ApoE analogs (COG 133, COG 112, and COG 68) were added to enriched OPC culture in proliferation media for four days. Cultures were then differentiated in the absence of the ApoE analogs. Cells were labeled with a GST-π antibody to detect mature oligodendrocytes.
Since COG 112 increased the proliferation of OPCs, we next examined whether the ApoE analogs could also increase the number of mature oligodendrocytes. Enriched OPC cultures were prepared as described for the previous experiment. 2 μM COG 133 (SEQ ID NO: 1), 1 μM COG 112 (SEQ ID NO: 5), or 1 μM COG 68 (Ac-[…]-NH2; SEQ ID NO: 7) were added to the enriched OPC cultures in proliferation media for four days. The media was then replaced with differentiation medium without the ApoE analogs for an additional six days. Cells were labeled with a GST-π antibody to detect mature oligodendrocytes.

microglia cell line BV2 = experiment: LPS-induced NO and TNF-α release in BV2 microglia; type: cell-based, murine; settings: LPS 10 ng/ml, 24 hours
Procedure: FIG. 16. […] Series concentrations of ApoE analogs were added to culture medium together with LPS (10 ng/ml). 24 hours later, culture medium was collected for measurement of NO by Griess assay or TNF-α by ELISA. […] ApoE analogs (10 μM) were added to the cell medium of human macrophage U937 5 minutes prior to PMA+LPS treatment. The release of superoxide in culture medium was measured by Luminol assay kit (Calbiochem).
The murine microglia cell line BV2 was used as the first screening platform to compare the potency of ApoE analogs in anti-inflammatory activity. In response to LPS, BV2 produces amounts of reactive radical NO and inflammatory cytokines, such as TNF-α and IL-6. We stimulated the cells with LPS (10 ng/ml) in the presence of several concentrations of each of the ApoE analogs. We measured NO in medium by Griess assay and TNF-α by ELISA 24 hours after LPS stimulation of the cells. The IC50 value was calculated for each of the ApoE analogs.

inhibition of calcineurin activity (Calcineurin): Inactive
Compound: acetyl-AS-Aib-LRKL-Aib-KR-amide (Ac-AS[Aib]LRKL[Aib]KR-NH2; SMILES CC(=O)N[C@@H](C)C(=O)N[C@@H](CO)C(=O)NC(C)(C)C(=O)N[C@@H](CC(C)C)C(=O)N[C@@H](CCCNC(=N)N)C(=O)N[C@@H](CCCCN)C(=O)N[C@@H](CC(C)C)C(=O)NC(C)(C)C(=O)N[C@@H](CCCCN)C(=O)N[C@@H](CCCNC(=N)N)C(N)=O) [COG 125, reference compound]
anti-inflammatory properties [1]: did not exhibit any anti-inflammatory properties

Compound: CCCCCCCCc1ccc(CCC(N)(CO)CO)cc1 [FTY720, reference compound]
OPC cell death by LDH and MTT assays [2]: did not show a clear protective effect

Compound: CC(=O)N[C@@H](CC(C)C)C(=O)N[C@@H](CCCNC(=N)N)C(=O)N[C@H](C(=O)N[C@@H](CCCNC(=N)N)C(=O)N[C@@H](CC(C)C)C(=O)N[C@@H](C)C(=O)N[C@@H](CO)C(=O)NC(C)(C)C(=O)N[C@@H](CC(C)C)C(=O)N[C@@H](CCCNC(=N)N)C(=O)N[C@@H](CCCCN)C(=O)N[C@@H](CC(C)C)C(=O)N[C@@H](CCCNC(=N)N)C(=O)N[C@@H](CCCCN)C(=O)N[C@@H](CCCNC(=N)N[N+](=O)[O-])C(=O)N[C@@H](CC(C)C)C(=O)N[C@@H](CC(C)C)C(N)=O)C(C)C [COG 248, acetyl-LRVRLAS-Aib-LRKLRK(nitro-Arg)LL-amide] (Ac-LRVRLAS[Aib]LRKLRK[Arg(NO2)]LL-NH2)
MTD (Maximum tolerated dose; sc, subcutaneous injection, read-out: Maximum Tolerated Dose Subcutaneous): > 150 mg/kg
MTD (Maximum tolerated dose; intravenous injection, read-out: Maximum Tolerated Dose Intravenous): 25 mg/kg

Compound: acetyl-Aib-LRKL-Aib-(n acetyl K)RLL-amide (Ac-[Aib]LRKL[Aib]K(Ac)RLL-NH2; SMILES CC(=O)NCCCC[C@H](NC(=O)C(C)(C)NC(=O)[C@H](CC(C)C)NC(=O)[C@H](CCCCN)NC(=O)[C@H](CCCNC(=N)N)NC(=O)[C@H](CC(C)C)NC(=O)C(C)(C)NC(C)=O)C(=O)N[C@@H](CCCNC(=N)N)C(=O)N[C@@H](CC(C)C)C(=O)N[C@@H](CC(C)C)C(N)=O) [COG 241]
Area under curve (mean ± SEM) ([3]; clinical score vs days post-inoculation, out to 60 days): 13.5 ± 2.6
CSmax during relapse (mean ± SEM) ([3]; maximal clinical score during relapse): 2.3 ± 0.8
Relapse Rate ([3]; number of animals experiencing a relapse): 8/15

inhibition of calcineurin activity (Calcineurin): dose-dependent inhibition
Compound: acetyl-RRLSYSRRRFLRVRLASHLRKLRKRLL-amide (Ac-RRLSYSRRRFLRVRLASHLRKLRKRLL-NH2) [COG 68, ApoE peptide linked to the protein transduction domain SynB3]
number of mature oligodendrocytes (GST-π) (enriched OPC cultures): significantly increased the number of mature oligodendrocytes
activity in suppression of microglia activation (NO by Griess assay, TNF-α by ELISA) (microglia cell line BV2): clearly superior to that of COG 133

Compound: acetyl-AS-Aib-LRKL-Aib-KRLL-amide [COG 1410]
activity in suppression of microglia activation (NO by Griess assay, TNF-α by ELISA) (microglia cell line BV2): clearly superior to that of COG 133
